From patent US20090093424A1, “Markers for melanoma” (University College Dublin, priority 2006, published 2009)

Tested on: FABP5 gene expression in melanoma cell lines (WM793 and derivatives)
Experiment: RT-PCR analysis via cycle limitation to assess effect of DAC treatment on FABP5 expression in melanoma cell lines
Assay type: cell-based, human
Protocol: Total RNA was extracted from untreated (−DAC) and treated (+DAC) cells and subjected to RT-PCR analysis via a cycle limitation method.
RNA extracts were pre-digested with DNase I prior to cDNA synthesis using the DNA-Free kit (Ambion). Single-stranded cDNA was synthesized from 1 μg total RNA using the ImProm-II Reverse Transcription kit (Promega). Recombinant RNasin Ribonuclease Inhibitor (20 U/20 μL reaction; Promega) was added to prevent RNase-mediated degradation. Two negative controls were also utilised, namely minus reverse transcriptase enzyme control and minus template control. Following inactivation of reverse transcriptase (RT) at 70° C. for 15 minutes, aliquots of generated single-stranded cDNA were subjected to polymerase chain reaction (PCR) amplification via a cycle limitation approach.
18 s was used as a control gene whose expression is unaffected by DAC treatment.
Primers used were as follows: […]

Nc1ncn([C@H]2C[C@H](O)[C@@H](CO)O2)c(=O)n1 [DAC, 5-aza-2′-deoxycytidine]
expression of the FABP5 gene after DAC treatment (derivative melanoma cell lines of WM793, treated (+DAC) vs untreated (-DAC), 18s control gene, FIG. 6): increased expression of the FABP5 gene | recovery of FABP5 expression by DAC treatment, aggressive derivative lines compared with parental line (more aggressive melanoma cell lines vs parental WM793, FIG. 6): recovered greater expression in these cells than in the parental melanoma cell line
